Test results from patent US10816493B2, “Electrical measurement method, electrical measurement device, and blood condition analysis system” (SONY CORPORATION, priority 2015, dated 2020).

Test system: blood coagulation
Assay: Permittivity measurement over time of blood samples with calcium chloride added (coagulation start-indicating parameter)
Format: cell-based
Protocol: Experimental Example 2 was performed to determine whether and how the results of measurement of an electrical characteristic differ between a case using a compound having an inhibitory effect on blood sedimentation and having no influence on the electrical characteristic parameter used for analysis and a case using a compound having an influence on the electrical characteristic parameter. In this experimental example, permittivity was used as an example of the electrical characteristic. In addition, a coagulation start-indicating parameter for use in blood coagulation analysis was focused on as an example of the electrical characteristic parameter for use in analysis. Furthermore, in Experimental Example 2, measurement was performed on blood samples containing citric acid added as an anticoagulant with calcium chloride added as a blood coagulation […].
Carboxymethyl dextran as an example of the blood sedimentation inhibitor was dissolved at a concentration of 10% w/v in PBS. The carboxymethyl dextran-containing PBS solution was added in an amount of 10% to a whole blood sample with a high blood sedimentation rate, so that a sample of Example 3 was obtained.
A control sample was prepared by adding a blood sedimentation inhibitor-free PBS in an amount of 10% to the same whole blood sample as in Example 3.
Betaine was dissolved at a concentration of 10% w/v in PBS. The resulting blood sedimentation inhibitor-containing PBS solution was added in an amount of 10% to a blood sample with sedimentation abnormalities, prepared by a method similar to that in Experimental Example 1, so that a sample of Comparative Example 3 was obtained.
A control sample was prepared by adding a blood sedimentation inhibitor-free PBS in an amount of 10% to a blood sample with sedimentation abnormalities, prepared by a method similar to that in Experimental Example 1.
The permittivity of 180 μL of each of the samples of Example 3, Control for Example, Comparative Example 3, and Control for Comparative Example, prepared as described above, was measured at a frequency of 1 MHz over time.

In the case of `C[N+](C)(C)CC(=O)O` [Comparative Example 3, Betaine], the “analysis of blood coagulation start time using a parameter indicating the time at which coagulation started” value (10% w/v in PBS added in an amount of 10%, citric acid plus calcium chloride, permittivity at 1 MHz) is reported as “impossible to extract any parameter indicating the coagulation start time”, the “signal behavior compared with the control sample” value (10% w/v in PBS added in an amount of 10%, citric acid plus calcium chloride, permittivity at 1 MHz, FIGS. 6 and 7) is reported as “completely different from that of the control sample” and the “adverse effect on the analysis (usability as blood sedimentation inhibitor)” value (blood coagulation analysis based on permittivity) is reported as “has an adverse effect on the analysis”. The “inhibitory effect on blood sedimentation (in words)” value (suggested from results of Experimental Example 2) was “have an inhibitory effect on blood sedimentation”.
